Values after ≈ are worked out from the molar mass of the structure shown. Like-named read-outs stand apart in the source and are kept apart here.
Assays:
ACC1 = ACC1 isolated from rat, mouse, monkey and human; cited from earlier work
ACC2 = ACC2 isolated from rat, mouse, monkey and human; cited from earlier work
human (hACC2) = human (hACC2) (Homo sapiens, UniProt O00763); assay: In vitro ACC inhibition assay (ADP-Glo), hACC2; format: biochemical; conditions: Table 2b, additional results, 5 nM ACC2, 20 μM ATP, 20 μM acetyl-CoA
Chain of human (hACC2) (O00763 whole entry): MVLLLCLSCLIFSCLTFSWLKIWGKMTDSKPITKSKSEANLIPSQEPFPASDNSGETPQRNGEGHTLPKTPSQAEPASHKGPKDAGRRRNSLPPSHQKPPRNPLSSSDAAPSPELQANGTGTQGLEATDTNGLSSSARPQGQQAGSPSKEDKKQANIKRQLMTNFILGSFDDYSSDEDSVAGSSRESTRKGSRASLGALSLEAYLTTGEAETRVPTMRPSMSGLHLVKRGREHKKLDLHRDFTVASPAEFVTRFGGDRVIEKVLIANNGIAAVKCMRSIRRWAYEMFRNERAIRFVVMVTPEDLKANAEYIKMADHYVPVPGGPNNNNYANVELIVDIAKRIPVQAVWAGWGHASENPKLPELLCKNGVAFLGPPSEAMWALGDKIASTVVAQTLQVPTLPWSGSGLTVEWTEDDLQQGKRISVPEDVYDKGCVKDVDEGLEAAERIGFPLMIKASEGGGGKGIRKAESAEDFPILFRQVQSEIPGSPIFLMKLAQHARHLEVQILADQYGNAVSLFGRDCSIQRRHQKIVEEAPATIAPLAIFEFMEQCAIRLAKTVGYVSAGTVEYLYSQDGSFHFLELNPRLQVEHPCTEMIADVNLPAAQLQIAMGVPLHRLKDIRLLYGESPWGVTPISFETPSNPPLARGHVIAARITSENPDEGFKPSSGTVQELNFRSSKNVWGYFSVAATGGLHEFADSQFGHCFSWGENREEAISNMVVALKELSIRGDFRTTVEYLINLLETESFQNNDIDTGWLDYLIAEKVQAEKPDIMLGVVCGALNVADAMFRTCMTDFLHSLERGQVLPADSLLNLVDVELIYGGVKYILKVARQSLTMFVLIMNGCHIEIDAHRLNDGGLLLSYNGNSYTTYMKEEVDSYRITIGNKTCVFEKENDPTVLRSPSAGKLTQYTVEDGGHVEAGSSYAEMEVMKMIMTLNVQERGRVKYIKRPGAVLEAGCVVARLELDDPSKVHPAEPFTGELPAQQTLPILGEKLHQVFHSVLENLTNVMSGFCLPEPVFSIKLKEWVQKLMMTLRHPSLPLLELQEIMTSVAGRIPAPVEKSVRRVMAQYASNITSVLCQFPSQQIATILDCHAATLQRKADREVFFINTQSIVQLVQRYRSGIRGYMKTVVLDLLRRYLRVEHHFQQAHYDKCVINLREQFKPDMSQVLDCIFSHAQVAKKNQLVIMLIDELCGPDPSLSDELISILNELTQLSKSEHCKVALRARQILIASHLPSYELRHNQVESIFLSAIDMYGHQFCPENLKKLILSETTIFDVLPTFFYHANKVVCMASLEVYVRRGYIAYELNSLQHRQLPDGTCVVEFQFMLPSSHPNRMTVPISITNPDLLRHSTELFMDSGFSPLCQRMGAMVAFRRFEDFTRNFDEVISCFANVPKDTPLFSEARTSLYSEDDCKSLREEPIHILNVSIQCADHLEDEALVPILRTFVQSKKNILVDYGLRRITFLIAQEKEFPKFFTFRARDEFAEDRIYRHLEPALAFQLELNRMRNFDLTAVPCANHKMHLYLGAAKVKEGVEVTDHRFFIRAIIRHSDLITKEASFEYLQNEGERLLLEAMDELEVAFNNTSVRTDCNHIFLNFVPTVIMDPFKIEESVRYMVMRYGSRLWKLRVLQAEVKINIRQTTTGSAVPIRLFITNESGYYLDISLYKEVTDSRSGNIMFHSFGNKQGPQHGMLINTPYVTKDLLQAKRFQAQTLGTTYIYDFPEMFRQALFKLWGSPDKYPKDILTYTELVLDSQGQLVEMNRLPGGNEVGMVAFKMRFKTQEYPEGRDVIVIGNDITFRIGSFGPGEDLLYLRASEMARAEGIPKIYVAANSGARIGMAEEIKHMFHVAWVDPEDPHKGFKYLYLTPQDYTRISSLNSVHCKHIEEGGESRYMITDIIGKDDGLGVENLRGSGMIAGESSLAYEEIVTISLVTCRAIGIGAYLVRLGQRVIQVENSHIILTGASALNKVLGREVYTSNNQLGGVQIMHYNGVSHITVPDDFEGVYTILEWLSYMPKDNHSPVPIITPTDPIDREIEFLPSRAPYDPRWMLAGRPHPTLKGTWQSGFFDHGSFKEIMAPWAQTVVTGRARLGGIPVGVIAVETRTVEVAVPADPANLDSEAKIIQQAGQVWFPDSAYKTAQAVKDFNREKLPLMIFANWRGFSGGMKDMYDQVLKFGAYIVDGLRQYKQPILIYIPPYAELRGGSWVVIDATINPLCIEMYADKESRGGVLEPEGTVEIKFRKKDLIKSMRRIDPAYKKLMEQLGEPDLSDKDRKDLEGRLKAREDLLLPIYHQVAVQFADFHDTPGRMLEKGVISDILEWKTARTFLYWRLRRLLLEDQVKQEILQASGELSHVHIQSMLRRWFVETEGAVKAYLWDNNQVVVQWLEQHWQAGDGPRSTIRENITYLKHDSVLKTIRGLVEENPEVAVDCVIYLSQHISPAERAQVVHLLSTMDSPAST
Procedure: The detailed procedure is as follows. […] 10 μL ADP glo reagent was added. […] 20 μL kinase detection reagent was added.

C. albicans = assay: Antifungal Activity Assay (broth microtiter MIC), C. albicans; format: cell-based, Candida albicans; conditions: for MIC: Candida albicans, ATCC90028, 48 h
Outline: (§1)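 CLSI M27-A3 broth microdilution in RPMI 1640+MOPS, final inoculum 2.5×10^3 CFU/mL from overnight Sabouraud cultures grown at 35 °C. MIC read visually at 48 h against growth control.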

C. krusei = assay: Antifungal Activity Assay (broth microtiter MIC), C. krusei; format: cell-based, Candida krusei; conditions: for MIC: Pichia kudriavzevii, ATCC6258, 48 h
Outline: as §1

C. parapsilosis = assay: Antifungal Activity Assay (broth microtiter MIC), C. parapsilosis; format: cell-based, Candida parapsilosis; conditions: for MIC: Lodderomyces parapsilosis, ATCC22019, 48 h
Outline: as §1

Botrtyis cinerea (Bc) = assay: Growth inhibition assay of fungal pathogens, Bc; format: cell-based; conditions: growth inhibition at 48 hours vs 2% DMSO control; for IC90: 48 h
Outline: (§2)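 Percent inhibition derived at 48 hours from OD600 and visual scores versus 2% DMSO control, with media+DMSO blank as background. Spore inocula in 17% V8 medium were sized from 48 h growth curves; compounds tested at final 50/10/2 or 2/0.4/0.08 ppm.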

[1] = tested on: Collectotrichum graminicola (Cg); assay: Growth inhibition assay of fungal pathogens, Cg; format: cell-based; conditions: growth inhibition at 48 hours vs 2% DMSO control; for IC90: 48 h
Outline: as §2

Diplodia maydis (Dm) = assay: Growth inhibition assay of fungal pathogens, Dm; format: cell-based; conditions: growth inhibition at 48 hours vs 2% DMSO control; for IC90: Stenocarpella maydis, 48 h
Outline: as §2

[2] = tested on: Fusarium moniliforme (Fm); assay: Growth inhibition assay of fungal pathogens, Fm; format: cell-based; conditions: for IC90: Fusarium verticillioides, 48 h, read-out: Concentration at 90% Inhibition Fm
Outline: as §2

[3] = tested on: Fusarium virguliforme (Fv); assay: Growth inhibition assay of fungal pathogens, Fv; format: cell-based; conditions: for IC90: 48 h
Outline: as §2

[4] = tested on: Phytophthora capsici (Pc); assay: Growth inhibition assay of fungal pathogens, Pc; format: cell-based; conditions: for IC90: 48 h
Outline: as §2

Rhizoctonia solani (Rs) = assay: Growth inhibition assay of fungal pathogens, Rs; format: cell-based; conditions: for IC90: 48 h
Septoria tritici (St) = assay: Growth inhibition assay of fungal pathogens, St; format: cell-based; conditions: growth inhibition at 48 hours vs 2% DMSO control; for IC90: Zymoseptoria tritici, 48 h
Outline: as §2

fungal (fACC2) = fungal (fACC2) (UniProt Q00955); conditions: read-out: fACC2 (in vitro ACC2 Inhibition Assay, IC50); Table 2b, additional results; ADP-Glo, 5 nM ACC2, 20 μM ATP, 20 μM acetyl-CoA
Chain of fungal (fACC2) (Q00955 whole entry): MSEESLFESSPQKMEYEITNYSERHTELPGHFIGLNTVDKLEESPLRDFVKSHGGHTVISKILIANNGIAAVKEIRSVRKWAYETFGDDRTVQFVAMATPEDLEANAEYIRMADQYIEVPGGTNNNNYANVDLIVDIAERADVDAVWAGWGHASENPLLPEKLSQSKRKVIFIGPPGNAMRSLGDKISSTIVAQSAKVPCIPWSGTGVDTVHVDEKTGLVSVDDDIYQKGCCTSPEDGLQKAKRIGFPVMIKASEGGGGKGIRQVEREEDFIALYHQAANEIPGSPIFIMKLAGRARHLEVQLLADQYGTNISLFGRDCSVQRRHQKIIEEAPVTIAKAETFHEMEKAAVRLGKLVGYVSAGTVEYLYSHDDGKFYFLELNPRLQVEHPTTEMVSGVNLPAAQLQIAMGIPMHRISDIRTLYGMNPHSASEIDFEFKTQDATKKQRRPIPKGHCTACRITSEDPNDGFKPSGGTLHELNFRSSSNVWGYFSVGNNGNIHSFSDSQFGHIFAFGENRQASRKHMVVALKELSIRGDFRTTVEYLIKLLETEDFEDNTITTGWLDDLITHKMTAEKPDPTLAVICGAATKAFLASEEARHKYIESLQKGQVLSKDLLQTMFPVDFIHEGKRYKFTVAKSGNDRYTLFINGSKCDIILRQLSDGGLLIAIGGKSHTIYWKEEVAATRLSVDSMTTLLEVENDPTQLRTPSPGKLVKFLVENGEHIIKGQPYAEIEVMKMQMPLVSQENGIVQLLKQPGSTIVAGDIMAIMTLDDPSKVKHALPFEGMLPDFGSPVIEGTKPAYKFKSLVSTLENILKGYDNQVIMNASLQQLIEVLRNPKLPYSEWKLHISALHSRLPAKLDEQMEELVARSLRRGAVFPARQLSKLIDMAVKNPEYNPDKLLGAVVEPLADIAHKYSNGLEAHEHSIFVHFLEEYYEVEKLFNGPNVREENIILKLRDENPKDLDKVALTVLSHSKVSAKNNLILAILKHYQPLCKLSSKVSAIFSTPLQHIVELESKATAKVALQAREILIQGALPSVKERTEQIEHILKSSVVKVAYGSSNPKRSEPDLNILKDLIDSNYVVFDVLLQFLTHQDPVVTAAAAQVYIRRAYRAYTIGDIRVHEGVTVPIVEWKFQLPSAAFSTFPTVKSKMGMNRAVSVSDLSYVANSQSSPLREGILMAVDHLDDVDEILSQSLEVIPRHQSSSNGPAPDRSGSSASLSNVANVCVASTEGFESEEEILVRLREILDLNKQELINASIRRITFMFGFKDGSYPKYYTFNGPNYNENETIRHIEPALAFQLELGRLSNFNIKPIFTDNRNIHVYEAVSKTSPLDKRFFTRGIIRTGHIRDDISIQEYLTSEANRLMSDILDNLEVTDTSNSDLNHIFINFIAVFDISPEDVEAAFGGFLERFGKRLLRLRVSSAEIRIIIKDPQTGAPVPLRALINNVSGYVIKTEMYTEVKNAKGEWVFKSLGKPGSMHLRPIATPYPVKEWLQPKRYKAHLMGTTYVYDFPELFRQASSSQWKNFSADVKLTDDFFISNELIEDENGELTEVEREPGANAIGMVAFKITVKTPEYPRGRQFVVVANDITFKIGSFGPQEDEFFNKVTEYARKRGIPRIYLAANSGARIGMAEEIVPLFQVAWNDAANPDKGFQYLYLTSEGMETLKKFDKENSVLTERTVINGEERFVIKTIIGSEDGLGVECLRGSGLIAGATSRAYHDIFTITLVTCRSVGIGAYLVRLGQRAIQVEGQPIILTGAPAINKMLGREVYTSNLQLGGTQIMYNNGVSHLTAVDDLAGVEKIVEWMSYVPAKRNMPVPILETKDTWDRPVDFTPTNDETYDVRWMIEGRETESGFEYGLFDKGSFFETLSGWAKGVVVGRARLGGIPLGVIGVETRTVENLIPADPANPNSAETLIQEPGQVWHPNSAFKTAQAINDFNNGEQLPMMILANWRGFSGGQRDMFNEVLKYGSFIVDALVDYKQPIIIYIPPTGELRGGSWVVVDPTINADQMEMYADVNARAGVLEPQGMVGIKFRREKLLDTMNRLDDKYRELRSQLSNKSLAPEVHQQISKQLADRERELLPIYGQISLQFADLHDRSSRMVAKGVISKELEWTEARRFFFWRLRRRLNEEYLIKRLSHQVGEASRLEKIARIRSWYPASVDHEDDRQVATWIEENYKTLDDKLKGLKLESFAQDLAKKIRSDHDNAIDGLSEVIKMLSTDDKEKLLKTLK

[5] = Table 3b (additional results), 3 replicates, MIC recorded at 48 h
[6] = Fusarium moniliforme, growth inhibition at 48 hours vs 2% DMSO control
[7] = growth inhibition at 48 hours vs 2% DMSO control
[8] = Table 3b (additional results), ATCC 90028, 3 replicates, MIC recorded at 48 h, read-out: MIC, C. albicans ATCC 90028
[9] = Table 3b (additional results), ATCC 6258, 3 replicates, MIC recorded at 48 h, read-out: MIC, C. krusei ATCC 6258
[10] = Table 3b (additional results), ATCC 22019, 3 replicates, MIC recorded at 48 h, read-out: MIC, C. parapsilosis ATCC 22019
[11] = Botrtyis cinerea, read-out: Concentration at 90% Inhibition Bc
[12] = Collectotrichum graminicola, read-out: Concentration at 90% Inhibition Cg
[13] = Diplodia maydis, read-out: Concentration at 90% Inhibition Dm
[14] = growth inhibition at 48 hours vs 2% DMSO control, read-out: Concentration at 90% Inhibition Fv
[15] = growth inhibition at 48 hours vs 2% DMSO control, read-out: Concentration at 90% Inhibition Pc
[16] = mycelial plugs, growth inhibition at 48 hours vs 2% DMSO control, read-out: Concentration at 90% Inhibition Rs
[17] = Septoria tritici, read-out: Concentration at 90% Inhibition St

O=C(c1c2ccccc2cc2ccccc12)N1CCC(N2CCC[C@@H](C(=O)N3CCOCC3)C2)CC1 [CP-640186]
IC50 (ACC1): ~60 nM | IC50 (ACC2): ~60 nM

COc1ccc(F)cc1CCn1c(=O)n(C(C)(C)C(=O)NC(C)C)c(=O)c2c(C)c(-n3nccn3)sc21 [Compound I-268]
IC50 (human (hACC2)): 10 to 40 nM | MIC, C. albicans ATCC 90028 (C. albicans; [5]): B (MIC of 1.01-2.0 μg/mL) | MIC, C. krusei ATCC 6258 (C. krusei; [5]): A (MIC of 0.25-1.0 μg/mL) | MIC, C. parapsilosis ATCC 22019 (C. parapsilosis; [5]): B (MIC of 1.01-2.0 μg/mL) | Concentration at 90% Inhibition Bc (Botrtyis cinerea (Bc); Botrtyis cinerea): A (compound concentration of 0.4 ppm at 90% inhibition of fungal pathogens) | Concentration at 90% Inhibition Cg ([1]; Collectotrichum graminicola): C (compound concentration of 10.0 ppm at 90% inhibition of fungal pathogens) | Concentration at 90% Inhibition Dm (Diplodia maydis (Dm); Diplodia maydis): C (compound concentration of 10.0 ppm at 90% inhibition of fungal pathogens) | Concentration at 90% Inhibition Fm [2, 6]: A (compound concentration of 0.4 ppm at 90% inhibition of fungal pathogens) | Concentration at 90% Inhibition Fv [3, 7]: AA (compound concentration of 0.08 ppm at 90% inhibition of fungal pathogens) | Concentration at 90% Inhibition Pc [4, 7]: D (compound concentration of >50 ppm at 90% inhibition of fungal pathogens) | Concentration at 90% Inhibition Rs (Rhizoctonia solani (Rs); mycelial plugs, growth inhibition at 48 hours vs 2% DMSO control): B (compound concentration of 2.0 ppm at 90% inhibition of fungal pathogens) | Concentration at 90% Inhibition St (Septoria tritici (St); Septoria tritici): D (compound concentration of >50 ppm at 90% inhibition of fungal pathogens) | IC50 (fungal (fACC2)): 1 to 5 nM

Cc1c(-n2nccn2)sc2c1c(=O)n(C(C)(C)C(=O)NC(C)C)c(=O)n2C[C@H](OCCC#N)c1ccccc1O [Compound I-271]
IC50 (human (hACC2)): 5 to 10 nM | MIC (C. albicans; [8]): 2.01 to 4 µg/mL (≈ 3.55 to 7.07 µM) | MIC (C. krusei; [9]): 2.01 to 4 µg/mL (≈ 3.55 to 7.07 µM) | MIC (C. parapsilosis; [10]): 2.01 to 4 µg/mL (≈ 3.55 to 7.07 µM) | IC90 (Botrtyis cinerea (Bc); [11]): 10 µg/mL (≈ 17.7 µM) | IC90 [1, 12]: > 50 µg/mL | IC90 (Diplodia maydis (Dm); [13]): > 50 µg/mL | IC90 [2, 6]: 2 µg/mL (≈ 3.54 µM) | IC90 [3, 14]: 2 µg/mL (≈ 3.54 µM) | IC90 [4, 15]: > 50 µg/mL | IC90 (Rhizoctonia solani (Rs); [16]): 10 µg/mL (≈ 17.7 µM) | IC90 (Septoria tritici (St); [17]): > 50 µg/mL | IC50 (fungal (fACC2)): 0.3 to 1 nM

CC(=O)Oc1ccccc1[C@H](Cn1c(=O)n(C(C)(C)C(=O)NC(C)C)c(=O)c2c(C)c(-n3nccn3)sc21)OCCC#N [Compound I-272]
IC50 (human (hACC2)): 1 to 5 nM | MIC (C. albicans; [8]): 1.01 to 2 µg/mL (≈ 1.66 to 3.29 µM) | MIC (C. krusei; [9]): 1.01 to 2 µg/mL (≈ 1.66 to 3.29 µM) | MIC (C. parapsilosis; [10]): 1.01 to 2 µg/mL (≈ 1.66 to 3.29 µM) | IC90 (Botrtyis cinerea (Bc); [11]): 2 µg/mL (≈ 3.29 µM) | IC90 [1, 12]: 2 µg/mL (≈ 3.29 µM) | IC90 (Diplodia maydis (Dm); [13]): 10 µg/mL (≈ 16.5 µM) | IC90 [2, 6]: 0.08 µg/mL (≈ 0.132 µM) | IC90 [3, 14]: 0.4 µg/mL (≈ 0.658 µM) | IC90 [4, 15]: > 50 µg/mL | IC90 (Rhizoctonia solani (Rs); [16]): 2 µg/mL (≈ 3.29 µM) | IC90 (Septoria tritici (St); [17]): > 50 µg/mL | IC50 (fungal (fACC2)): 0.3 to 1 nM

CCOC(=O)c1ccccc1[C@H](Cn1c(=O)n(C(C)(C)C(=O)NC(C)C)c(=O)c2c(C)c(-n3nccn3)sc21)OCCC#N [Compound I-275]
IC50 (human (hACC2)): > 40 nM | MIC (C. albicans; read-out: MIC, C. albicans ATCC 90028, Table 3b (additional results), 3 replicates, MIC recorded at 48 h): 2.01 to 4 µg/mL (≈ 3.23 to 6.43 µM) | MIC (C. krusei; read-out: MIC, C. krusei ATCC 6258, Table 3b (additional results), 3 replicates, MIC recorded at 48 h): 2.01 to 4 µg/mL (≈ 3.23 to 6.43 µM) | MIC (C. parapsilosis; read-out: MIC, C. parapsilosis ATCC 22019, Table 3b (additional results), 3 replicates, MIC recorded at 48 h): 2.01 to 4 µg/mL (≈ 3.23 to 6.43 µM) | IC90 (Botrtyis cinerea (Bc); read-out: Concentration at 90% Inhibition Bc, Botrtyis cinerea): 10 µg/mL (≈ 16.1 µM) | IC90 ([1]; read-out: Concentration at 90% Inhibition Cg, Collectotrichum graminicola): > 50 µg/mL | IC90 (Diplodia maydis (Dm); read-out: Concentration at 90% Inhibition Dm, Diplodia maydis): > 50 µg/mL | IC90 [2]: 2 µg/mL (≈ 3.22 µM) | IC90 ([3]; read-out: Concentration at 90% Inhibition Fv, Fusarium virguliforme, growth inhibition at 48 hours vs 2% DMSO control): 2 µg/mL (≈ 3.22 µM) | IC90 ([4]; read-out: Concentration at 90% Inhibition Pc, Phytophthora capsici, growth inhibition at 48 hours vs 2% DMSO control): > 50 µg/mL | IC90 (Rhizoctonia solani (Rs); read-out: Concentration at 90% Inhibition Rs, Rhizoctonia solani, mycelial plugs, growth inhibition at 48 hours vs 2% DMSO control): 10 µg/mL (≈ 16.1 µM) | IC90 (Septoria tritici (St); read-out: Concentration at 90% Inhibition St, Septoria tritici): > 50 µg/mL | IC50 (fungal (fACC2)): 0.3 to 1 nM

From patent US10800791B2, “Triazole ACC inhibitors and uses thereof” (Gilead Apollo, LLC, priority 2015, dated 2020)
